Laboratory results: US20200339691A1, “PROTEINACEOUS MOLECULES AND USES THEREFOR” (priority 2018, published 2020)
Where a SMILES comes first, the peptide text is derived from it. The star is where a group is joined. Myristoyl = CCCCCCCCCCCCCC(=O)*

What was measured:
[1] = tested on: CD44^hiCD24^lo CSCs in MDA-MB-231 cells; assay: FACS analysis of CD44^hiCD24^lo cancer stem cells in MDA-MB-231 cells treated with P1 analogues; type: cell-based, human; details: 50 μM peptide, 48 hours; for CD44^hiCD24^lo CSCs (%) / COI, Live Single CD44^hiCD24^lo CSCs (Cell Count): n = 1; for Average Inhibition of CSCs (%) / CD44^hiCD24^lo CSCs (%) Repeat 1 / CD44^hiCD24^lo CSCs (%) Repeat 2 / CD44^hiCD24^lo CSCs (%) Repeat 3: n = 3
Procedure: Analogues of P1 (Table 6) were designed and synthesized in accordance with the procedure of Example 5. The ability of these analogues to inhibit cancer stem cells was determined using FACS analysis on MDA-MB-231 cells, which constitutively contain approximately 90% CD44^hiCD24^lo cancer stem cells, treated with the peptides.
(§1) Non-adherent cells were removed during the washing steps.

MDA-MB-231 cells = type: cell-based, human; details: 50 μM peptide, 48 hours, n = 1
From the text: as §1
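For COI, Live Single Cells (Cell Count) in this document: live means Hoechst-negative events among single cells.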

Structure (SMILES)	Inhibition of CSCs (%) Repeat 1 [1]	Inhibition of CSCs (%) Repeat 2 [1]	Inhibition of CSCs (%) Repeat 3 [1]	CD44^hiCD24^lo CSCs (%) [1]	COI, Live Single CD44^hiCD24^lo CSCs (Cell Count) [1]	Average Inhibition of CSCs (%) [1]	CD44^hiCD24^lo CSCs (%) Repeat 1 [1]	CD44^hiCD24^lo CSCs (%) Repeat 2 [1]	CD44^hiCD24^lo CSCs (%) Repeat 3 [1]	COI (Cell Count) (MDA-MB-231 cells)	COI, Live Single Cells (Cell Count) (MDA-MB-231 cells)	COI, Single (Cell Count) (MDA-MB-231 cells)	Total Cell Count (MDA-MB-231 cells)
CCCCCCCCCCCCCC(=O)N[C@@H](CC(C)C)C(=O)N[C@H](C(=O)N[C@@H](Cc1ccccc1)C(=O)N[C@H](C(=O)N[C@@H](Cc1ccccc1)C(=O)N[C@@H](CCC(=O)O)C(=O)N[C@@H](CC(C)C)C(=O)N[C@@H](CCCNC(=N)N)C(=O)N[C@@H](CCCCN)C(=O)NCC(=O)N[C@@H](CCCNC(=N)N)C(=O)N[C@@H](CCSC)C(=O)N[C@@H](CCSC)C(=O)N[C@@H](CC(=O)O)C(=O)N[C@H](C(=O)N[C@@H](CCCCN)C(=O)N[C@@H](CCCCN)C(N)=O)C(C)C)[C@@H](C)CC)[C@@H](C)O [Peptide 2853817, Myristoyl-LTFIFELRKGRMMDVKK-NH2] (Myristoyl-LTFIFELRKGRMMDVKK-NH2)	88.00%	91.08%	82.27%	13.76%	56	87.12%	10.75%	8.00%	15.91%	511	407	463	899
CCCCCCCCCCCCCC(=O)N[C@@H](CC(C)C)C(=O)N[C@H](C(=O)N[C@@H](Cc1ccccc1)C(=O)N[C@@H](CC(C)C)C(=O)N[C@@H](Cc1ccccc1)C(=O)N[C@@H](CCCNC(=N)N)C(=O)N[C@@H](CC(C)C)C(=O)N[C@@H](CCCNC(=N)N)C(=O)N[C@@H](CCCCN)C(=O)NCC(=O)N[C@@H](CCCNC(=N)N)C(=O)N[C@@H](CCSC)C(=O)N[C@@H](CCSC)C(=O)N[C@@H](CC(=O)O)C(=O)N[C@H](C(=O)N[C@@H](CCCCN)C(=O)N[C@@H](CCCCN)C(N)=O)C(C)C)[C@@H](C)O [Peptide 2853812, Myristoyl-LTFLFRLRKGRMMDVKK-NH2] (Myristoyl-LTFLFRLRKGRMMDVKK-NH2)	80.95%	86.31%	86.89%	16.67%	14	84.72%	17.07%	12.28%	11.76%	108	84	87	3794
CCCCCCCCCCCCCC(=O)N[C@H](C(=O)N[C@@H](Cc1ccccc1)C(=O)N[C@H](C(=O)N[C@@H](Cc1ccccc1)C(=O)N[C@@H](CCCNC(=N)N)C(=O)N[C@@H](CC(C)C)C(=O)N[C@@H](CCCNC(=N)N)C(=O)N[C@@H](CCCCN)C(=O)NCC(=O)N[C@@H](CCCNC(=N)N)C(=O)N[C@@H](CCSC)C(=O)N[C@@H](CCSC)C(=O)N[C@@H](CC(=O)O)C(=O)N[C@H](C(=O)N[C@@H](C)C(=O)N[C@@H](CCCCN)C(N)=O)C(C)C)[C@@H](C)CC)[C@@H](C)O [Peptide 2815316, Myristoyl-TFIFRLRKGRMMDVAK-NH2] (Myristoyl-TFIFRLRKGRMMDVAK-NH2)	40.88%	45.01%	45.00%	50.00%	2	43.63%	52.99%	49.33%	49.35%	22	4	20	10777
CCCCCCCCCCCCCC(=O)N[C@@H](CC(C)C)C(=O)N[C@H](C(=O)N[C@@H](Cc1ccccc1)C(=O)N[C@H](C(=O)N[C@@H](Cc1ccccc1)C(=O)N[C@@H](CCCNC(=N)N)C(=O)N[C@@H](CC(C)C)C(=O)N[C@@H](CCCNC(=N)N)C(=O)N[C@@H](CCCCN)C(=O)NCC(=O)N[C@@H](CCC(=O)O)C(=O)N[C@@H](CCSC)C(=O)N[C@@H](CCSC)C(=O)N[C@@H](CC(=O)O)C(=O)N[C@H](C(=O)N[C@@H](CCCCN)C(=O)N[C@@H](CCCCN)C(N)=O)C(C)C)[C@@H](C)CC)[C@@H](C)O [Peptide 2853830, Myristoyl-LTFIFRLRKGEMMDVKK-NH2] (Myristoyl-LTFIFRLRKGEMMDVKK-NH2)	45.65%	53.16%	55.12%	29.21%	1312	51.31%	48.71%	42.02%	40.27%	5072	4491	4600	8489
CCCCCCCCCCCCCC(=O)N[C@@H](CC(C)C)C(=O)N[C@H](C(=O)N[C@@H](Cc1ccccc1)C(=O)N[C@H](C(=O)N[C@@H](Cc1ccccc1)C(=O)N[C@@H](CCCNC(=N)N)C(=O)N[C@@H](CC(C)C)C(=O)N[C@@H](CCCNC(=N)N)C(=O)N[C@@H](CCCCN)C(=O)NCC(=O)N[C@@H](CCCNC(=N)N)C(=O)N[C@@H](CCCCN)C(=O)N[C@@H](CCSC)C(=O)N[C@@H](CC(=O)O)C(=O)N[C@H](C(=O)N[C@@H](CCCCN)C(=O)N[C@@H](CCCCN)C(N)=O)C(C)C)[C@@H](C)CC)[C@@H](C)O [Peptide 2853833, Myristoyl-LTFIFRLRKGRKMDVKK-NH2] (Myristoyl-LTFIFRLRKGRKMDVKK-NH2)	70.25%	75.23%	85.46%	12.50%	9	76.98%	26.67%	22.22%	13.04%	495	72	363	4559
CCCCCCCCCCCCCC(=O)N[C@@H](CCC(=O)O)C(=O)N[C@H](C(=O)N[C@@H](Cc1ccccc1)C(=O)N[C@H](C(=O)N[C@@H](Cc1ccccc1)C(=O)N[C@@H](CCCNC(=N)N)C(=O)N[C@@H](CC(C)C)C(=O)N[C@@H](CCCNC(=N)N)C(=O)N[C@@H](CCCCN)C(=O)NCC(=O)N[C@@H](CCCNC(=N)N)C(=O)N[C@@H](CCSC)C(=O)N[C@@H](CCSC)C(=O)N[C@@H](CC(=O)O)C(=O)N[C@H](C(=O)N[C@@H](CCCCN)C(=O)N[C@@H](CCCCN)C(N)=O)C(C)C)[C@@H](C)CC)[C@@H](C)O [Peptide 2853802, Myristoyl-ETFIFRLRKGRMMDVKK-NH2] (Myristoyl-ETFIFRLRKGRMMDVKK-NH2)	42.88%	46.07%	49.94%	48.71%	3133	46.30%	51.19%	48.38%	44.92%	7612	6432	7095	9672
CCCCCCCCCCCCCC(=O)N[C@@H](CC(C)C)C(=O)N[C@H](C(=O)N[C@@H](Cc1ccccc1)C(=O)N[C@H](C(=O)N[C@@H](Cc1ccccc1)C(=O)N[C@@H](CCCNC(=N)N)C(=O)N[C@@H](Cc1ccccc1)C(=O)N[C@@H](CCCNC(=N)N)C(=O)N[C@@H](CCCCN)C(=O)NCC(=O)N[C@@H](CCCNC(=N)N)C(=O)N[C@@H](CCSC)C(=O)N[C@@H](CCSC)C(=O)N[C@@H](CC(=O)O)C(=O)N[C@H](C(=O)N[C@@H](CCCCN)C(=O)N[C@@H](CCCCN)C(N)=O)C(C)C)[C@@H](C)CC)[C@@H](C)O [Peptide 2853819, Myristoyl-LTFIFRFRKGRMMDVKK-NH2] (Myristoyl-LTFIFRFRKGRMMDVKK-NH2)	98.02%	89.55%	93.19%	2.62%	5	93.59%	1.78%	9.38%	6.11%	563	191	372	4572
CCCCCCCCCCCCCC(=O)N[C@@H](CC(C)C)C(=O)N[C@H](C(=O)N[C@@H](Cc1ccccc1)C(=O)N[C@H](C(=O)N[C@@H](Cc1ccccc1)C(=O)N[C@@H](CCCNC(=N)N)C(=O)N[C@@H](CC(C)C)C(=O)N[C@@H](CCCNC(=N)N)C(=O)N[C@@H](CCCCN)C(=O)NCC(=O)N[C@@H](CCCNC(=N)N)C(=O)N[C@@H](CCC(=O)O)C(=O)N[C@@H](CCSC)C(=O)N[C@@H](CC(=O)O)C(=O)N[C@H](C(=O)N[C@@H](CCCCN)C(=O)N[C@@H](CCCCN)C(N)=O)C(C)C)[C@@H](C)CC)[C@@H](C)O [Peptide 2853832, Myristoyl-LTFIFRLRKGREMDVKK-NH2] (Myristoyl-LTFIFRLRKGREMDVKK-NH2)	93.78%	94.44%	94.90%	2.48%	11	94.37%	5.58%	4.99%	4.58%	674	444	515	2068
